The subject of series [1] is mice with ischemic AKI. Put plainly: renal ischemia-reperfusion injury model: renal function (serum creatinine, NGAL, KIM-1). The series is classed as in vivo. Particulars: IRI-30 min, 24 hours reperfusion. The method, then:
(§1) Mice were anesthetized with isoflurane using a vaporizer and placed on a heating pad to maintain their body temperature at 37° C. Both renal arteries were identified through dorsal incisions and clamped for 20, 30, 35, or 37 minutes. Reperfusion was confirmed visually upon release of the clamps. Surgical wounds were closed, and mice were administered 1 mL of saline i.p. The mice were kept in a warm incubator until they regained consciousness and were allowed to recover with ad libitum access to food and water. […] Serum and kidney tissue were collected 24 hours after renal IRI.
Renal function was assessed by determining the serum levels of creatinine (KB02-H1; Arbor Assays), Lipocalin-2 (NGAL; MLCN20; R&D Systems), and kidney injury molecule-1 (KIM-1; MKM100; R&D Systems) after reperfusion for 24 h.

Series [2] relates to renal arterioles in the outer medulla. The series is described as follows: renal vasodilatation in the outer medulla (α-SMA-positive arteriole area). Particulars: α-SMA staining. The series is classed as in vivo, mice. The method, then: as §1
To quantify vasodilation, the inner arteriole area of the outer medulla was determined using α-SMA-stained sections. After counterstaining with Mayer's hematoxylin, the inner area of α-SMA-positive vessels in the outer medulla (×25) was measured using ImageJ. The results are expressed as average areas of renal arteries outer medulla.

Series [3] has as its system PGE2 receptors (EP1, EP2, EP3 and EP4) and adenosine receptor (A2A). Put plainly: renal IRI model: PGE2 receptors (EP1-EP4) and adenosine A2A receptor levels. The class given is in vivo, mice. The method, then: as §1
PGE2 receptors (EP1, EP2, EP3 and EP4) and adenosine receptor (A2A) mRNA levels were determined by real-time PCR with SYBR green PCR Master Mix and the primers listed in Table 1. Their protein levels were determined by western blotting assay and immunofluorescence analysis.

A further series has as its system PGE2 levels. The series is described as follows: renal IRI model: time course of PGE2 in kidney tissue and serum. The class given is in vivo, mice. How it is done:
as §1
[…] Next, the kidney tissues (˜20 mg) were homogenized in 500 μL of cold PBS containing indomethacin (10 μg/mL) using a tissue homogenizer. The suspension was sonicated in an ice-water bath for 1 minute using cycles of 10 seconds of sonication with 10 seconds of cooling, and they were then centrifuged for 10 minutes at 12,000 rpm. The supernatant was collected for PGE2 assay. Protein concentrations were determined by BCA assay (23225; Thermo Scientific). The PGE2 level in the supernatant was measured using a PGE2 ELISA Kit (SKGE004B; R&D Systems) in triplicate. PGE2 levels were expressed as ng PGE2/mg protein.

Series [4] deals with mice with ischemic AKI. The series is described as follows: renal ischemia-reperfusion injury model: renal function (serum creatinine, NGAL, KIM-1). The series is classed as in vivo. The conditions noted are these: IRI mice, single pre-IRI dose.
In a further series the test system is mice. The series is described as follows: toxicity after IP injection into mice.
Where [5] appears, read: 5 mg/kg 1 hour before, immediately after, and 12 hours after IRI, vs IRI-vehicle.
[6] abbreviates: IRI mice, pretreatment, 0.5 hours, mRNA in kidney tissue.
The mark [7] stands for this setting: kidney tissue, in comparison to sham and to IRI mice.

For `CCCC[S+]([O-])c1sc2nc(-c3cccs3)cc(-c3ccccc3)c2c1N` (stereo not shown) [SW033291], in the series on mice with ischemic AKI [1] (setting [5]), the “serum KIM-1” value was “significantly reducing”, the “serum NGAL” value is listed as “significantly reducing” and the serum creatinine entry is “significantly reducing”. Also, the “renal protection from IRI (serum NGAL, creatinine, KIM-1)” value in the series with mice with ischemic AKI [1] (3 doses of 5 mg/kg) is reported as “markedly protected kidney from IRI”. Moreover, the “renal arteriole area in the outer medulla” value in series [2] (IRI mice) is recorded as “significantly increased”. Further, the “renal arteriole area in the outer medulla” value in series [2] (normal mice) is on record as “increased”. In series [3] (setting [6]), the “increase of A2A receptor over baseline” value came to 1.6 fold and the “increase of EP4 receptor over baseline” value stood at 2.4 fold. In addition, in series [3] (kidney tissue, IRI mice), the “EP1 receptor mRNA” value is listed as “without effecting”, the “EP2 receptor mRNA” value is reported as “without effecting” and the “EP3 receptor mRNA” value is “without effecting”. For the same molecule, in series [3] (setting [7]), the “increase of EP4 receptor mRNA and protein levels” value is on record as “up to 2.3 fold”; the “levels of the adenosine A2A receptor protein” value is listed as “induced”. The “serum PGE2 level” value in the series on PGE2 levels (BI30 mice at 24 hours, prophylaxis) is recorded as “significantly decreased”. Further, the “post-IRI peaks of renal PGE2 at 0.5 and 14 hours” value in the series on PGE2 levels (IRI mice, single pre-IRI dose, kidney tissue) is recorded as “substantially block”. Moreover, in the series on PGE2 levels (mice, single pre-IRI dose, kidney tissue), the “renal PGE2 peak over baseline before IRI” value stood at 5.12 fold. In the series with mice with ischemic AKI [4], the “induction of KIM-1 (time course)” value is listed as “notably effective blockade of induction” and the “induction of creatinine (time course)” value is on record as “notably effective blockade of induction”. For the same molecule, in the series with mice with ischemic AKI [4] (peak at 12 hours), the “reduction of peak induction of NGAL” value is on record as 20%. The toxicity entry in the series on mice (IP into mice at 0.3 μmole/per mouse twice daily for 21 days) is “no toxicity”. Further, in the series with mice (IP into mice at 0.6 μmole/per mouse), the “immediate toxicity over 24 hours” value is given as “no immediate toxicity”. For the same molecule, the “immediate toxicity over 24 hours” value in the series with mice (IP into mice at 1.2 μmole/per mouse) is given as “no immediate toxicity”.

The record behind these values is patent publication US20250325524A1, “COMPOSITIONS AND METHODS FOR TREATING RENAL INJURY” (CASE WESTERN RESERVE UNIVERSITY, priority 2018, published 2025).
